Assay results from patent US5646155A, “Drugs to prevent recurrent herpes virus infections” (priority 1994, dated 1997).
Values after ≈ are worked out from the molar mass of the structure shown. Where two headings read alike, the source gives them in different places. Each block holds one molecule with its values, some of them ahead of it.

Assays:
[1] = target: Varicella Zoster Virus (VZV) Thymidine Kinase (TK) (Varicella-zoster virus, UniProt P09250); assay: VZV thymidine kinase inhibition (Table 7); format: biochemical
physchem = conditions: octanol/water
HSV2 TK = HSV2 TK (Human herpesvirus 2, UniProt P04407); assay: HSV2 thymidine kinase inhibition (Table 1); format: biochemical
Excerpt: kinases (TK) from Herpes simplex virus types 1 and 2 (HSV1, HSV2).

[2] = Solubility in water (Table 1); format: physicochemical; conditions: read-out: Sol. in H2O
HSV1 TK = HSV1 TK (Human herpesvirus 1, UniProt P0DTH5); assay: biochemical
[3] = Pharmacokinetics in mice following intraperitoneal administration (Table 3); format: in vivo; conditions: mouse, ip
Experimental: Pharmacokinetic parameters of inhibitors in mice
following intraperitoneal (100 mg/Kg) administration (i.p.)
^1 Plasma concentrations were measured by analytical HPLC on a C8
reverse phase column as described in the experimental Section.

HSV1, strain McKrae = assay: Reactivation in vitro of latent HSV1 strain McKrae from explanted mouse ganglia (Table 6); format: cell-based, mice; conditions: 15 μM drugs, 7 days, supernatant added to Vero cells
Experimental: Screening of compounds is carried out using an in vitro explant cocultivation model in mice. Ocular HSV1 infections are initiated and, after subsidence of the infectious phase (several days), latent HSV1 infection becomes established in the trigeminal ganglia of the mice. The ganglia are then surgically removed and minced or homogenized, and this explanted tissue is cocultivated on mammalian cells, typically Vero cells. The frequency of reactivation is determined as the percentage of ganglia that produce HSV1 virus (as measured by viral cytopathic effect (CPE)) in the cultures. Effective drugs present during the cocultivation period will decrease the frequency of reactivation relative to untreated cocultures. See Leib et al. (J. Virol. 63:759-768 (1989)), incorporated herein by reference, and statements herein for further experimental details.
Latent ocular HSV1 infections were established in mice. Trigeminal gangli
were removed and treated as follows.
^2 Ganglia were minced and incubated for 7 days in the presence of 15
μM drugs; after homogenization, supernatant was added to Vero cells in
culture (courtesy of Dr. Y. J. Gordon, Eye and Ear Institute, Pittsburgh)

HSV1 [4] = assay: Hyperthermia-induced HSV1 reactivation in mice, infectious virus (Table 4); format: in vivo; conditions: for Infectious Virus, Ganglion / Infectious Virus, Ocular Surface: 200 mg/kg
Experimental: (§1) Table 5 provides quantitation of viral DNA using quantitative, competitive polymerase chain reaction methods.
(§2) .dagger-dbl.HSV1 latent mice were treated with HBPG (200 mg/kg), stressed
(§3) by immersion in 43° C. water for 10 min, and sacrificed 24 hours
ΔGanglion homogenates and ocular surface swabs were cocultured on
indicator cells and the appearance of cytopathic effect recorded.

[5] = Absorption and distribution in mice (Table 2); format: in vivo; conditions: for Vd/F: i.p.; for half-life: plasma
Excerpt: Absorption and distribution of 9-substituted-N^2 -phenylquanines in mice.
*i.v., intravenous; i.p., intraperitoneal.

HSV1 [6] = assay: Hyperthermia-induced viral DNA synthesis in HSV1 latent mice, QCPCR (Table 5); format: in vivo; conditions: 200 mg/kg, stressed (43° C. water 10 min), ganglionic DNA
Experimental: as §1, §2, §3
ΔGanglionic DNA was amplified in quantitative, competitive
polymerase chain reaction (QCPCR) and the copy number of the viral gene
present determined at the equivalence point.

HSV1, strain KOS = conditions: 150 μM drugs, cocultivated on Vero cells (from Leib et al.); cited from earlier work
[7] = stressed (43° C. water 10 min), sacrificed 24 hours later
[8] = mouse, in vivo, ip, mice, in 90% DMSO/H2O, read-out: Volume of Distribution
[9] = mouse, ip, mice, in 90% DMSO/H2O
[10] = mouse, ip, pH 11.3, mice, in saline, pH 11.3

HSV2 TK, sequence (P04407 whole entry): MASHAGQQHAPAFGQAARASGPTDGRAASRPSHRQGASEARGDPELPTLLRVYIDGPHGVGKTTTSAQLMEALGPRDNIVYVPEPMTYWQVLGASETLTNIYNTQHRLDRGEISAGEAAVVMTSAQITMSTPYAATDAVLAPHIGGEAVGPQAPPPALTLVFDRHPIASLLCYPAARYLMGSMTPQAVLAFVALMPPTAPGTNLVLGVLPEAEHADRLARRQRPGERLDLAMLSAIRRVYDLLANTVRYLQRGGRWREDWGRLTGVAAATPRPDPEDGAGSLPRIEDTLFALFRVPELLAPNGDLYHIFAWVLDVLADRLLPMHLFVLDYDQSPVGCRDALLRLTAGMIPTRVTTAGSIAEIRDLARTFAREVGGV
Varicella Zoster Virus (VZV) Thymidine Kinase (TK), sequence (P09250 whole entry, looked up): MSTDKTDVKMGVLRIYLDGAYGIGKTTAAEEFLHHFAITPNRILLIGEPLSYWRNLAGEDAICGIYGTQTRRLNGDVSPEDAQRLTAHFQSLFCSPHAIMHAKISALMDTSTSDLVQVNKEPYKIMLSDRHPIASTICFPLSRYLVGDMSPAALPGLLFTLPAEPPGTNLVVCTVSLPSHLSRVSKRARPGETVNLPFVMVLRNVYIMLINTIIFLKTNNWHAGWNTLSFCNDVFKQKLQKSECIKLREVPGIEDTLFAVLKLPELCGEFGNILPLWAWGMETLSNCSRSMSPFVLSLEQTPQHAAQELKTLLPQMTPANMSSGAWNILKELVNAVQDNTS
HSV1 TK, sequence (P0DTH5 whole entry): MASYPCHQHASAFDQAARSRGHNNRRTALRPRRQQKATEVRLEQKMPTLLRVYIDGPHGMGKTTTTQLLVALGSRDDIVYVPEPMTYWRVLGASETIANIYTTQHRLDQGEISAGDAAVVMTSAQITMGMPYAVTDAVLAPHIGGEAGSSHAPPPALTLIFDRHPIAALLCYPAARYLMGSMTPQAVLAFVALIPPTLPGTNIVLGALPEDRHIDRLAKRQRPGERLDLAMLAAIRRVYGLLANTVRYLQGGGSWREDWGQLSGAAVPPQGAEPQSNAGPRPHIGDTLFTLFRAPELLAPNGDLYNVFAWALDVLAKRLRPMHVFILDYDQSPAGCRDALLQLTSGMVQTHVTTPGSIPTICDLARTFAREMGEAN

Structure (SMILES): CCCCCCCCCCCCNc1nc2nc[nH]c2c(=O)[nH]1 [C12 G, N^2 -(n-Dodecyl)guanine]
- Ki [1]: 3200 nM
- Mode of inhibition of VZV TK [1]: Competitive inhibitor

Structure (SMILES): CCCCCCCCCCCCCCNc1nc2[nH]cnc2c(=O)[nH]1 [C14 G]
- IC50 [1]: 69000 nM

- logP (physchem): 0.826
- IC50 (HSV2 TK; read-out: IC50 HSV2 TK): 1560 nM
- solubility [2]: 29.8 µM (≈ 10.8 µg/mL)
Structure (SMILES): O=c1[nH]c(Nc2ccccc2)nc2c1ncn2CC(O)CSCCO (stereo not shown) [CH2 CHCH2SCH2 CH2 OH]

Structure (SMILES): C=CCn1cnc2c(=O)[nH]c(Nc3ccccc3)nc21 [CH2 CHCH2]
- logP (physchem): 1.75
- solubility [2]: 8.1 µM (≈ 2.17 µg/mL)

- logP (physchem): 0
- IC50 (HSV1 TK): 500 nM
- solubility [2]: 113 µM (≈ 37.4 µg/mL)
Structure (SMILES): O=c1[nH]c(Nc2ccccc2)nc2c1ncn2COC(CO)CO [CH2OCH(CH2 OH)2]

Structure (SMILES): O=c1[nH]c(Nc2ccccc2)nc2c1ncn2CC(O)CO (stereo not shown) [DHP-PG, 9-(2,3-Dihydroxypropyl)-N^2-phenylguanine]
- logP (physchem): 0.398
- C0 ([3]; in vivo, 100 mg/kg): 115 µM
- half-life ([3]; in vivo, 100 mg/kg): 17.3 min
- # ganglia reactivated/# explanted, HSV1 strain McKrae (HSV1, strain McKrae): 4/4
- solubility [2]: 171 µM (≈ 51.4 µg/mL)

Structure (SMILES): O=c1[nH]c(Nc2ccccc2)nc2c1ncn2CCCCO [HB-PG, 9-(4-Hydroxybutyl)-N^2-phenylguanine]
- logP (physchem): 1.26
- IC50 (HSV2 TK): 2200 nM
- C0 ([3]; in vivo, 100 mg/kg): 30.5 µM
- Infectious Virus, Ganglion (HSV1 [4]; not stressed): 0/8
- Infectious Virus, Ocular Surface (HSV1 [4]; not stressed): 0/9
- Infectious Virus, Ganglion (HSV1 [4]; [7]): 7/18
- Infectious Virus, Ocular Surface (HSV1 [4]; [7]): 3/20
- P, difference in frequency of virus in samples from HBPG-treated compared to placebo-treated animals (HSV1 [4]; vs placebo): < 0.05
- # ganglia reactivated/# explanted, HSV1 strain McKrae (HSV1, strain McKrae): 2/4
- Vd/F [5, 8]: 12.7 L/kg
- half-life [5, 9]: 85 min
- half-life ([5]; mouse, ip, mice, in corn oil): 55 min
- solubility [2]: 56 µM (≈ 16.8 µg/mL)
- Viral DNA (HSV1 [6]): < 1 × 10^2 copies

Structure (SMILES): O=c1[nH]c(Nc2ccccc2)nc2c1ncn2CCO [HE-PG, 9-(2-Hydroxyethyl)-N^2-phenylguanine]
- logP (physchem): 0.833
- C0 ([3]; in vivo, 100 mg/kg): 100 µM
- half-life ([3]; plasma, mice, i.p. 100 mg/Kg, 90% DMSO, read-out: Plasma t1/2): 21 min
- # ganglia reactivated/# explanted, HSV1 strain McKrae (HSV1, strain McKrae): 4/4
- Plasma half-life ([5]; mice, i.v., in 90% DMSO/H2O): 15 min
- Volume of Distribution ([5]; mice, i.v., in 90% DMSO/H2O): 3.3 L/kg
- Vd/F [5, 8]: 4.3 L/kg
- half-life [5, 9]: 19 min
- solubility [2]: 156 µM (≈ 42.4 µg/mL)

Structure (SMILES): Oc1[nH]c(Nc2ccccc2)nc2ncnc1-2 [H]
- IC50 (HSV2 TK): 1600 nM

Structure (SMILES): O=C(O)Cn1cnc2c(=O)[nH]c(Nc3ccccc3)nc21 [PG-AA, (N^2 -Phenylguan-9-yl)acetic acid]
- C0 ([3]; in vivo, 100 mg/kg): 246 µM
- half-life ([3]; in vivo, 100 mg/kg): 26.6 min
- # ganglia reactivated/# explanted, HSV1 strain McKrae (HSV1, strain McKrae): 4/4
- Vd/F [5, 8]: 1.7 L/kg
- half-life [5, 9]: 33 min

Structure (SMILES): O=c1[nH]c(Nc2ccccc2)nc2c1ncn2[C@H]1C[C@H](O)[C@@H](CO)O1 [PhdG, 9-(2-Deoxyribofuranosyl)-N^2-phenylguanine]
- C0 ([3]; in vivo, 100 mg/kg, pH 11.4): 11.7 µM
- half-life ([3]; in vivo, 100 mg/kg, pH 11.4): 60 min
- # ganglia reactivated/# explanted, HSV1 strain KOS (HSV1, strain KOS): 3/20
- # ganglia reactivated/# explanted, HSV1 strain McKrae (HSV1, strain McKrae): 1/4
- Vd ([5]; mouse, in vivo, iv, mice, i.v., in saline, pH 11.3, read-out: Volume of Distribution): 0.4 L/kg
- half-life [5, 10]: 60 min
- half-life ([5]; mouse, iv, pH 11.3, mice, in saline, pH 11.3): 7.5 min

Structure (SMILES): CCCNc1nc2c(ncn2[C@H]2C[C@H](O)[C@@H](CO)O2)c(=O)[nH]1 [PrdG, 9-(2-deoxyribofuranosyl)-N^2-n-propylguanine]
- IC50 [1]: 20000 nM
- Ki [1]: 13600 nM
- Mode of inhibition of VZV TK [1]: Competitive inhibitor

Structure (SMILES): O=c1[nH]c(Nc2ccccc2)nc2c1ncn2[C@H]1C[C@H](O)[C@@H](CO)O1 [drawing 15]
- logP (physchem): 0.398
- IC50 (HSV2 TK): 700 nM
- solubility [2]: 81 µM (≈ 27.8 µg/mL)

Structure (SMILES): O=c1[nH]c(Nc2cccc(C(F)(F)F)c2)nc2nc[nH]c12 [m-CF3 PG, N^2-(m-[trifluoromethyl]phenyl)guanine, reference compound]
- C0 ([3]; in vivo, 100 mg/kg, pH 11.4): 10.2 µM
- # ganglia reactivated/# explanted, HSV1 strain KOS (HSV1, strain KOS): 1/20
- # ganglia reactivated/# explanted, HSV1 strain McKrae (HSV1, strain McKrae): 0/4
- Plasma half-life ([5]; mice, i.v., in saline, pH 11.3): 25 min
- Volume of Distribution ([5]; mice, i.v., in saline, pH 11.3): 3.0 L/kg
- half-life [5, 10]: 140 min
